The text below walks through data of patent US20130085133A1, “ANTI-VIRAL TREATMENT AND ASSAY TO SCREENFOR ANTI-VIRAL AGENT” (Sourthern Research Institute Office of Commercialization …, priority 2010, published 2013).

One series is described as follows: in vitro. Particulars: human.
Series [1] concerns respiratory syncytial virus (RSV) strain Long. In words: microbe, parasite or virus in culture. The settings on record: human respiratory syncytial virus, HEp-2, 144 h.
Experimental: The assay measures RSV virus-induced CPE in HEp-2 cells using cell viability as the end point.
Two vials of RSV (strain Long) containing 1×10^7 pfu/mL was thawed using an Eppendorf thermomixer for 13 min at 15° C., with shaking at 350 rpm. […] The cells were incubated for 18-20 h at 37° C., 5% CO2, 90% relative humidity. The medium was aspirated and the cells washed with 10 mL PBS without Mg^2+ or Ca^2+. Cells were harvested from flasks using 0.25% trypsin-EDTA. The cells were resuspended in a freezing medium of 95% fetal calf serum and 5% DMSO to a final cell density of 2×10^6 cells/mL. One mL aliquots of this virus infected cell suspension were dispensed to cryovials and cells were rate frozen to −80° C. Frozen infected cells were then transferred to −150° C. for long term storage.
Test compounds were evaluated by measuring their antiviral activity, cell toxicity, and selectivity. Test compounds were serially diluted in a plate to plate matrix or “stacked plate” matrix. All 320 compounds in a source plate were diluted together resulting in a 10 point dose response dilution series. It was visualized as a serial dilution series proceeding vertically through a stack of plates with the high dose plate on top and the low dose plate on the bottom.
Cells were harvested and resuspended to 80,000 cells per ml in Complete DMEM/F12.
Cells were thawed in a room temperature water bath with gentle agitation. The tube was inverted 5-10. Cells were diluted to 80,000 cells per ml by adding the contents of the vial to 24 ml of cold (4° C.) media.
Twenty five ul of uninfected HEp-2 cells were plated in the cell control wells. Frozen infected cells were combined with uninfected HEp-2 cells at a 1:100 ratio. Twenty five ul of the cell mixture was added to the virus control and compound wells. All cell plating was conducted using a Matrix WellMate and cells were maintained at room temperature with stirring during the plating process. The assay plates were incubated for six days at 37° C., 5% CO2 and 90% relative humidity.
Following the six day incubation period, the assay plates were equilibrated to room temperature for 30 min and an equal volume (30 μL) of Cell Titer-Glo reagent (Promega Inc.) was added to each well using a WellMate (Matrix, Hudson, N.H.) and plates were incubated for an additional 10 min at room temperature. At the end of the incubation, luminescence was measured using a Perkin Elmer Envision™ multi-label reader (PerkinElmer, Wellesley, Mass.) with an integration time of 0.1 s.
Data was analyzed using ActivityBase software (IDBS, Inc, Guilford, UK). thirty two control wells containing cells only and twenty four wells containing cells and virus were included on each assay plate and used to calculate Z′ value for each plate and to normalize the data on a per plate basis. […] Eight ribavirin positive control wells were included on each plate for quality control purposes, but were not used in Z′ calculations. […] In the toxicity assay, results are described as percent viability and the calculation is the same.
An EC50 (for CPE inhibition) and IC50 (for cell viability) were calculated for each substance using the 4 parameter Levenburg-Marquardt algorithm with parameter A locked at 0 and parameter B locked at 100. Standard deviation, normalized chi2 and hill slope were used to evaluate the curves. Values were not extrapolated beyond the tested range of concentrations.
Another series concerns RSV, Long strain. The series can be described thus: virus titer Reduction (VTR) assay, progeny virus TCID50 in HEp-2 cells. It is filed as cell-based, respiratory syncytial virus (RSV). Particulars: log reduction in progeny virus titer. The method, boiled down: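 HEp-2 cells infected with RSV Long (MOI 0.9) with four compound concentrations for 48 h; 10-fold serial dilutions of progeny supernatant then put on fresh HEp-2 cells for 6 days. Wells below 50% viability (CellTiter-Glo luminescence) scored infected; TCID50 taken as dilution giving 2 of 4 positive wells.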

Series [2] has as its system respiratory syncytial virus (RSV) strain Long. The settings on record: EC50 for CPE inhibition, HEp-2 cells, six days; unit not given; tested range 25 ug/mL to 0.048 ug/mL (Chembridge), 50 uM to 0.097 uM (Enamine, SRI Proprietary).
The next series has as its system HEp-2 cells. The series can be described thus: cytotoxicity assay (percent viability of HEp-2 cells, Cell Titer-Glo). The settings on record: cell viability of HEp-2 cells (text: IC50); unit not given; top concentration 25 ug/mL (Chembridge), 50 uM (Enamine, SRI Proprietary). In general terms: ATP-based viability assays read luminescence as a measure of living cells.

Read-outs that look alike come from different tables or passages of the source.

For `O=S(=O)(c1cc(Cl)c(O)c(Cl)c1)c1cc(Cl)c(O)c(Cl)c1` [AB00275543], the CC50 at 6 days in the series “in vitro” was above 25 µg/mL. The same compound returned an EC50 in series [1] of 16.2 µg/mL.
In the series “in vitro”, `COc1c2ccoc2nc2c(OC)cccc12` [AB00276394] had a CC50 above 25 µg/mL. This compound returned an EC50 in series [1] of 15.2 µg/mL.
On the same counts, the results for `N#CCCN1CCN(C(=S)c2ccc(-c3cccc(Cl)c3)o2)CC1` [AB00294368] are above 25 µg/mL and 15 µg/mL.
For the compound `Cc1cccc(-n2c(Cc3cccc([N+](=O)[O-])c3)nc3ccccc3c2=O)c1` [AB00297463], the CC50 at 6 days in “in vitro” was above 25 µg/mL. The EC50 in series [1] was found to be 16.3 µg/mL.
`O=Cc1cn(CC(=O)N2CCc3ccccc3C2)c2ccc(Br)cc12` [AB00302396] had a CC50 in the series “in vitro” above 25 µg/mL. In addition, in series [1], the EC50 was found to be 23.8 µg/mL.
As for `O=C(Nc1ccc2[nH]c(-c3ccccc3)nc2c1)c1ccccc1` [AB00308659], the “TCID-50 Reduction @ 3 ug/ml” value in the series with RSV, Long strain (3 ug/ml compound) was 2.82. Also, the “TCID-50 Reduction 6 @ ug/ml” value with RSV, Long strain (6 ug/ml compound) came out at 3.64. In addition, the “TCID-50 Reduction 12 @ ug/ml” value in the series with RSV, Long strain (12 ug/ml compound) came to 6.43. The “TCID-50 Reduction 25 @ ug/ml” value in the series on RSV, Long strain (25 ug/ml compound) was 6.40. In series [2], this compound returned an EC50 of 8.66. For the same compound, the CC50 with HEp-2 cells was above 25.00.
As for `C=CCN1C(=O)C2(C(C#N)=C(N)Oc3ccccc32)C(C(C)=O)=C1C` (stereo not drawn) [AB00364858], in the series “in vitro”, the CC50 at 6 days is above 25 µg/mL. The same compound registered an EC50 in series [1] of 21.2 µg/mL.
`CNC(=S)NNC(=O)COc1ccccc1C` [AB00370002] returned a CC50 in the series “in vitro” above 25 µg/mL. In addition, the EC50 in series [1] was found to be 22 µg/mL.
On the same counts, the results for `O=c1c(F)cn(Cc2ccc([N+](=O)[O-])cc2)c(=O)n1Cc1ccc([N+](=O)[O-])cc1` [AB00373945] are above 50 µM and 13.3 µM.
On the same counts, the results for `Nc1ccc2c(c1)Cc1ccccc1-2` [AB00374695] are above 50 µM and 46.8 µM.
For `O=S(=O)(O)c1ccc2c(c1)C1=NC/2=N\c2c3cc(S(=O)(=O)O)ccc3c3[n]2[Cu][n]2/c(c4ccc(S(=O)(=O)O)cc4/c2=N/C2=NC(=N\3)/c3cc(S(=O)(=O)O)ccc32)=N\1` [AB00514356], the CC50 in “in vitro” is above 50 µM.
`COc1ccccc1/C=N/NC(=N)N[N+](=O)[O-]` [SRI-101]: the CC50 in “in vitro” is above 50 µM. This compound also came in with an EC50 in series [1] of 35.7 µM.
